Patent US8133849B2, “Herbicidal compounds” (Syngenta Limited, priority 2007, dated 2012)

What was measured:
Experiment in all cases: Example B2 herbicidal action, post-emergence, pots in glasshouse, damage score 0-10
Type in all cases: in vivo
Details in all cases: application post-emergence, rate 1000 g/ha, evaluated after 13 days
[1] = system: Echinochloa crus-galli
Description: (§1) Seeds of a variety of test species were sown in standard soil in pots. After 8 days cultivation (post-emergence) under controlled conditions in a glasshouse (at 24/16° C., day/night; 14 hours light; 65% humidity), the plants were sprayed with an aqueous spray solution derived from the formulation of the technical active ingredient in acetone/water (50:50) solution containing 0.5% Tween 20 (polyoxyethelyene sorbitan monolaurate, CAS RN 9005-64-5). The test plants were then grown in a glasshouse under controlled conditions in a glasshouse (at 24/16° C., day/night; 14 hours light; 65% humidity) and watered twice daily. After 13 days, the test was evaluated (10=total damage to plant; 0=no damage to plant).

[2] = system: Setaria faberi
Description: as §1

[3] = system: Ipomea hederaceae
Description: as §1

[4] = system: Solanum nigrum
Description: as §1

[5] = system: Amaranthus retroflexus
Description: as §1

| Structure (SMILES) | ECHCG damage score (10=total damage to plant; 0=no damage to plant) [1] | SETFA damage score (10=total damage to plant; 0=no damage to plant) [2] | IPOHE damage score (10=total damage to plant; 0=no damage to plant) [3] | SOLNI damage score (10=total damage to plant; 0=no damage to plant) [4] | AMARE damage score (10=total damage to plant; 0=no damage to plant) [5] |
| --- | --- | --- | --- | --- | --- |
| CCSC(=O)OC1=C(c2cccc(Cl)c2Cl)S(=O)(=O)N(CC)c2nccnc21 [Compound C99] | 2 | 1 | 3 | 8 | 3 |
| CCN1c2nccnc2C(O)=C(c2ccccc2[N+](=O)[O-])S1(=O)=O [Compound D34] | 0 | 1 | 2 | 1 | 0 |
| CC(C)C(=O)OC1=C(c2cc(C(F)(F)F)ccc2Br)S(=O)(=O)N(CC(F)F)c2nccnc21 [Compound C59] | 7 | 3 | 10 | 10 | 10 |
| CC(C)(C)C(=O)OC1=C(c2cc(Cl)ccc2C(F)(F)F)S(=O)(=O)N(CC(F)F)c2nccnc21 [Compound C111] | 6 | 6 | 9 | 9 | 8 |
| CCN1c2nccnc2C(OC(=O)C(C)(C)C)=C(c2c(F)ccc(OC)c2Cl)S1(=O)=O [Compound C24] | 4 | 0 | 9 | 9 | 2 |
| CN1c2nccnc2C(O)=C(c2c(Cl)ccc(Cl)c2Cl)S1(=O)=O [Compound D47] | 4 | 1 | 8 | 10 | 8 |
| CC(C)C(=O)OC1=C(c2ccccc2C(F)(F)F)S(=O)(=O)N(CC(F)F)c2nccnc21 [Compound C61] | 9 | 10 | 10 | 10 | 10 |
| CCN1c2nccnc2C(O)=C(c2cc(Cl)ccc2C(F)(F)F)S1(=O)=O [Compound D52] | 4 | 4 | 5 | 7 | 5 |
| CC(C)C(=O)OC1=C(c2c(F)ccc(Cl)c2Cl)S(=O)(=O)N(CC(F)F)c2nccnc21 [Compound C36] | 7 | 3 | 10 | 9 | 9 |
| O=C(OC1=C(c2c(Cl)cccc2C(F)(F)F)S(=O)(=O)N(CC(F)F)c2nccnc21)Sc1ccccc1 [Compound C125] | 8 | 8 | 8 | 9 | 9 |
| CSC(=O)OC1=C(c2ccc(C(F)(F)F)cc2C(F)(F)F)S(=O)(=O)N(CC(F)F)c2nccnc21 [Compound C131] | 4 | 2 | 9 | 10 | 9 |
| CCSC(=O)OC1=C(c2c(C(F)(F)F)ccc(Cl)c2Cl)S(=O)(=O)N(CC(F)F)c2nccnc21 [Compound C135] | 7 | 10 | 8 | 10 | 8 |
| CC(C)(C)C(=O)OC1=C(c2cc(C(F)(F)F)ccc2Cl)S(=O)(=O)N(CC(F)F)c2nccnc21 [Compound C34, 2,2-dimethyl-propionic acid 3-(2-chloro-5-trifluoromethyl-phenyl)-1-(2,2-difluoro-ethyl)-2,2-dioxo-1,2-dihydro-2-λ-6-thia-1,5,8-triaza-naphthalen-4-yl ester] | 7 | 2 | 10 | 9 | 7 |
| Cc1ccc(C(F)(F)F)c(C2=C(O)c3nccnc3N(CC(F)F)S2(=O)=O)c1 [Compound D41] | 1 | 2 | 9 | 10 | 9 |
| O=S1(=O)C(c2cccc(C(F)(F)F)c2Cl)=C(O)c2nccnc2N1CC(F)F [Compound D37] | 3 | 5 | 10 | 9 | 10 |
| CCN1c2nccnc2C(O)=C(c2ccccc2OC(F)(F)F)S1(=O)=O [Compound D5] | 4 | 6 | 9 | 10 | 10 |
